Values quoted from earlier work as cited in patent US20080275118A1, “HEALTH AND COSMETIC COMPOSITION AND REGIME FOR STIMULATING HAIR GROWTH AND THICKENING ON THE HEAD, INCLUDING THE SCALP, EYELASHES, AND EYEBROWS, AND WHICH DISCOURAGES HAIR LOSS” (priority 2008, published 2008).

System: scalp hair
Details: in man, tests carried out on the scalp; Roenigk 1988

In the case of `C=CC(O)(C/C=C/[C@H]1[C@H](O)CC(=O)[C@@H]1C/C=C\CCCC(=O)OC)CCCC` (stereo partly shown) [viprostol], the hair density is given as “increasing hair density”.
